Experimental data published in patent publication US7323490B2, “Pyrrole compounds and uses thereof” (Ambit Biosciences Corporation, priority 2003, dated 2008).

How the values were obtained:
HMG-CoA reductase = target: T1, HMG-CoA reductase (Homo sapiens, UniProt P04035); experiment: enzymatic activity-based HMG-CoA reductase assay; assay type: biochemical; conditions: concentrations up to 4 μM
T1 sequence (P04035 1-888): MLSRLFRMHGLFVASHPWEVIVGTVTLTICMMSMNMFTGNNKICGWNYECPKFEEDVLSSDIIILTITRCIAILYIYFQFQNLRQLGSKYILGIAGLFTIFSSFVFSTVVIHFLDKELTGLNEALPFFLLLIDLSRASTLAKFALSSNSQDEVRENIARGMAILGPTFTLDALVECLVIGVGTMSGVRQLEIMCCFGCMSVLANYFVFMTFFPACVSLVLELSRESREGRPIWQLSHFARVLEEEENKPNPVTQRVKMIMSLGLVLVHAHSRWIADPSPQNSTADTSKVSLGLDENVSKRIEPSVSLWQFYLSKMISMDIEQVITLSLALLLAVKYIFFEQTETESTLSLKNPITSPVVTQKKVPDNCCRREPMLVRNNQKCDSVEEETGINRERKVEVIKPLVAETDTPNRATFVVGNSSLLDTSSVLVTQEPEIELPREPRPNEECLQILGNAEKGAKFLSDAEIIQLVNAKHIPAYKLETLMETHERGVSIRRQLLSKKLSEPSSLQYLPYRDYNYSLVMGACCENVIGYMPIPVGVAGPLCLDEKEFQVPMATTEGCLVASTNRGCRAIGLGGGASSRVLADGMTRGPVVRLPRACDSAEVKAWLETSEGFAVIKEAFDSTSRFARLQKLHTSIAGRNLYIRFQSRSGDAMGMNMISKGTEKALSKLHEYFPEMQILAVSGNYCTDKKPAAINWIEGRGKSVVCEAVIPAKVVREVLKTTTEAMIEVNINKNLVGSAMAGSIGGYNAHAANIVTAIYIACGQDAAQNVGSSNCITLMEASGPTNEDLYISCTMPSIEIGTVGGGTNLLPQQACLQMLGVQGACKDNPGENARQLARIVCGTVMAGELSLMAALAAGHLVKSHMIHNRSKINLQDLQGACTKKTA
Procedure: In addition, compounds 781430, 781066, 780780, 780754, 779974, 781456, 782236, 782756, 783250 and 780520 were tested in enzymatic activity-based HMG-CoA reductase assays. […] Blank cells indicate there was no detectable interaction while the “nd” designation indicates the Kd was not determined.

PDE6D [1] = target: T2, PDE6D (Homo sapiens, UniProt O43924); experiment: T7 phage display competition binding assay (immobilized atorvastatin), PDE6D; set-up: made in house; host or cells: T7 phage amplified in E. coli; conditions: soluble competitor vs atorvastatin-coated affinity matrix; T7 phage displaying human PDE6D
Text: (§1) The T7 phage displaying human PDE6D and CLB2 were obtained following the procedure of WO 01/18234, published Mar. 15, 2001, and U.S. patent applications Ser. No. 10/115,442, “Phage Display Affinity Filter and Forward Screen,” filed Apr. 2, 2002 and Ser. No. 10/214,654, “Uncoupling DNA Insert Propagation and Protein Display,” filed Aug. 7, 2002. […] The phage eluate was then amplified by growth in E. coli and the affinity enrichment procedure was repeated.
(§2) The dissociation constants, Kd's, for the interaction between the pyrrole compounds and the novel targets were obtained following the procedure of the co-pending patent applications U.S. Ser. Nos. 10/115,442, “Phage Display Affinity Filter and Forward Screen,” filed Apr. 2, 2002 and 60/480,587, “Protein Family Profiling Tool and Methods,” filed Jun. 20, 2003.

[2] = target: T3, PDE6D::HA11 fusion protein (Homo sapiens, UniProt O43924); experiment: Binding assay with rabbit reticulocyte lysate-produced human PDE6D; conditions: absence or presence of 10 μM non-immobilized atorvastatin; dot blot
T3 construct: made in house; host or cells: coupled transcription-translation in rabbit reticulocyte lysate (pTNT vector)

NQO2 = target: T4, NQO2 (Rattus norvegicus, UniProt Q6AY80); experiment: NQO2 binding pocket competition experiment, rat brain protein extract; conditions: competitors menadione, quercetin, FAD
T4 construct: from tissue; host or cells: rat liver or brain protein extract
T4 sequence (Q6AY80 1-231): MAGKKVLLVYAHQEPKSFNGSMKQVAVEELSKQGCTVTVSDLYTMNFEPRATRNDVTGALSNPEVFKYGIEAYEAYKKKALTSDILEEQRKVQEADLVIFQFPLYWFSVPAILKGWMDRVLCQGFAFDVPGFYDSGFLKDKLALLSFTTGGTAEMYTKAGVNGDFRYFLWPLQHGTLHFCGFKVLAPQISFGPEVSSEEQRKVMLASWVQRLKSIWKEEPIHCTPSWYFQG
Text: The crystal structure of the NQO2 protein has shown that this protein contains three distinct binding pockets. […] The data were obtained by loading the pooled eluates on a SDS-PAGE gel followed by silver staining.

rat liver NQO2 = target: T5, rat liver NQO2 (Rattus norvegicus, UniProt Q6AY80); experiment: Binding curve assay, rat liver NQO2 and atorvastatin bait; conditions: rat liver extract; semi-quantitative, densitometric scanning of silver-stained gel; read-out: apparent Kd NQO2
T5 construct: from tissue; host or cells: rat liver protein extract
T5 sequence (Q6AY80 1-231): T4 sequence (Q6AY80 1-231)

CLB2 = target: T6, CLB2 (Homo sapiens, UniProt P22676); experiment: T7 phage display competition binding assay (immobilized atorvastatin), CLB2; conditions: soluble competitor vs atorvastatin-coated affinity matrix; T7 phage displaying CLB2
T6 construct: made in house; host or cells: T7 phage amplified in E. coli
T6 sequence (P22676 1-271): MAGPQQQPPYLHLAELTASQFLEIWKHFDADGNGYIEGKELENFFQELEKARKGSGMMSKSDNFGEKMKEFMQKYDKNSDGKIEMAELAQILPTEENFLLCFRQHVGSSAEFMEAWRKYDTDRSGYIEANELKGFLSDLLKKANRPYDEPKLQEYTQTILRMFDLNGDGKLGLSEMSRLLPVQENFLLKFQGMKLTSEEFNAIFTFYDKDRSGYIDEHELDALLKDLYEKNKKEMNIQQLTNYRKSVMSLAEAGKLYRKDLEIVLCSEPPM
Text: as §1, §2

PDE6D [3] = target: T2, PDE6D; experiment: phage-based competition binding screen at 2 μM; set-up: made in house; host or cells: phage; conditions: 2 μM competitor, duplicate
Procedure: Forty-four molecules were screened for PDE6D binding activity in a standard phage-based competition binding assay, as described in co-pending U.S. patent applications Ser. No. 10/115,442, filed 2 Apr. 2002, and Ser. No. 10/406,797 filed on 2 Apr. 2003 (or PCT International Application PCT/US03/10247 filed 2 Apr. 2003). All compounds were screened in duplicate (duplicate sets of bars) at a concentration of 2 μM.

Compound	inhibition of the activity of HMG-CoA reductase (HMG-CoA reductase)	Kd (PDE6D [1])	binding of PDE6D::HA11 fusion protein to immobilized atorvastatin bait [2]	NQO2 binding pocket (NQO2)	Kd (rat liver NQO2)	Kd (CLB2)	fraction of PDE6D-displaying phage bound to immobilized atorvastatin (screen outcome) (PDE6D [3])
CC(C)c1c(C(=O)Nc2ccccc2)c(-c2ccccc2)c(-c2ccc(F)cc2)n1CC(O)C(O)C(O)C(O)CO (stereo not drawn) [Compound 782236]	none of the tested compounds inhibited	0.269 µM					
CC(C)c1c(C(=O)Nc2ccccc2)c(-c2ccccc2)c(-c2ccc(F)cc2)n1CC[C@@H](O)C[C@@H](O)CC(=O)O [atorvastatin, reference compound]			PDE6D bound to atorvastatin	binds the electron donor NRH pocket	~0.5 µM		
CC(C)c1[nH]c(-c2ccc(F)cc2)c(-c2ccccc2)c1C(=O)Nc1ccccc1 [Compound 781430]	none of the tested compounds inhibited	0.075 µM				0.94 µM	candidate lead compounds
